Results published in patent publication US10993919B2, “Chondroprotective nanoparticles for the treatment of osteoarthritis” (University of Florida Research Foundation, Inc., priority 2016, dated 2021).

Test system: fat pad-derived MSCs
Assay: MSC migration in Boyden chamber plates
Assay type: cell-based
Details: MSCs isolated from the fat pad of the joint; preliminary
Procedure: To determine if there are inherent differences in the migratory activity of the different MSC populations, migration in response to serum is first evaluated using 96-well Boyden chamber plates. To simulate OA conditions, MSC migration is evaluated in response to IL-1β (10 ng/mL and 50 ng/mL), conditioned medium from the established OA cartilage explants, and conditioned medium from normal explants. Results from each group are compared with a positive control of media with 10% serum to determine if the experimental conditions increase or decrease migration of MSCs.
The response of MSCs to chondroinductive agents is evaluated, specifically platelet-derived growth factor (PDGF-BB) and kartogenin (KGN), which were selected based on their pleiotropic effects on promoting both migration and chondrogenesis of MSCs without adverse effects in the OA joint. PDGF-BB exerts chemotactic effects on bone marrow-derived MSCs, and facilitates new cartilage formation in the presence of IL-1β (Montaseri, A., et al. PloS one 6:e28663 (2011)). […] Kartogenin has been implicated in stimulating MSC recruitment in vivo, however, there are no reported migration studies with KGN, and therefore, the underlying mechanism for KGN-mediated recruitment is largely unknown. […]

Substance: IL-1β: predominant pro-inflammatory cytokine in OA
- MSC migration: may indeed inhibit migration
